How the values were obtained:
[1] = tested on: HCV replicon I389luc-ubi-neo/NS3-3′/ET in ET (Huh-lucubineo-ET) cells; assay: Replicon assay (Biological Example 2), luciferase readout; type: cell-based; details: Hepatitis C virus
How it was run: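 EC50 values come from Hill fits of % inhibition of replicon-driven firefly luciferase, relative to no-compound wells. Compounds were serially diluted (10 points, 3-fold, 0.1 nM–50 μM final, 0.5% DMSO) onto ET replicon cells and read after 48 h.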

[2] = target: T1, HCV polymerase (Hepatitis C virus genotype 1b, UniProt Q9WMX2); assay: Polymerase assay of Biological Example 1 (IC50 values of Table 3); type: biochemical; details: IC50 values of Table 3, polymerase assay of Biological Example 1; read-out: NS5B-enzyme3
T1 construct: (His)6 (C); made in house; host or cells: XL-1 cells (E. coli, by own knowledge)

[3] = ET cells, luciferase activity 48 hours after compound

| SMILES | IC50 ([1]; between 100 nM and 5.0 uM) | IC50 [2] | IC50 [1, 3] |
| --- | --- | --- | --- |
| Cc1nn(C)cc1S(=O)(=O)N1CC(=O)N(c2cc(C#CC(C)(C)C)sc2C(=O)O)[C@H](C2CCCCC2)C1 [Compound 260, 3-[(R)-2-Cyclohexyl-4-(1,3-dimethyl-1H-pyrazole-4-sulfonyl)-6-oxo-piperazin-1-yl]-5-(3,3-dimethyl-but-1-ynyl)-thiophene-2-carboxylic acid] | 100 to 5000 nM | 8 nM |  |
| O=C(O)c1sc(-c2ccccc2)cc1N1C(=O)CN(Cc2ccc(N3CCCC3=O)cc2)C[C@H]1C1CCCCC1 [Compound 262, 3-{(R)-2-Cyclohexyl-6-oxo-4-[4-(2-oxo-pyrrolidin-1-yl)-benzyl]-piperazin-1-yl}-5-phenyl-thiophene-2-carboxylic acid] | 100 to 5000 nM | 25 nM |  |
| O=C(O)c1sc(-c2ccccc2)cc1N1C(=O)CN(Cc2ccc(Cl)nc2)C[C@H]1C1CCCCC1 [Compound 267, 3-[(R)-4-(6-Chloro-pyridin-3-ylmethyl)-2-cyclohexyl-6-oxo-piperazin-1-yl]-5-phenyl-thiophene-2-carboxylic acid] | 100 to 5000 nM | 64 nM |  |
| CN1CCC(N2CC(=O)N(c3cc(-c4ccccc4)sc3C(=O)O)[C@H](C3CCCCC3)C2)CC1 [Compound 271, 3-[(R)-2-Cyclohexyl-4-(1-methyl-piperidin-4-yl)-6-oxo-piperazin-1-yl]-5-phenyl-thiophene-2-carboxylic acid] |  | 2470 nM | ≥ 5000 nM |
| Cc1ccc(-c2cc(N3C(=O)CN(S(=O)(=O)c4ccc(N5CCCC5)nc4)C[C@H]3C3CCCCC3)c(C(=O)O)s2)cc1 [Compound 272, 3-[(R)-2-Cyclohexyl-6-oxo-4-(6-pyrrolidin-1-yl-pyridine-3-sulfonyl)-piperazin-1-yl]-5-p-tolyl-thiophene-2-carboxylic acid] |  | 1 nM | ≤ 100 nM |
| O=C(O)c1sc(-c2ccc(F)cc2)cc1N1C(=O)CN(S(=O)(=O)c2ccc(N3C[C@H]4C[C@@H]3CO4)nc2)C[C@H]1C1CCCCC1 [Compound 273, 3-{(R)-2-Cyclohexyl-4-[(1R,4R)-6-(2-oxa-5-aza-bicyclo[2.2.1]hept-5-yl)-pyridine-3-sulfonyl]-6-oxo-piperazin-1-yl}-5-(4-fluoro-phenyl)-thiophene-2-carboxylic acid] |  | 1 nM | ≤ 100 nM |
| O=C(O)c1sc(-c2ccc(Cl)cc2)cc1N1C(=O)CN(S(=O)(=O)c2ccc(N3C[C@H]4C[C@@H]3CO4)nc2)C[C@H]1C1CCCCC1 [Compound 274, 5-(4-Chloro-phenyl)-3-{(R)-2-cyclohexyl-4-[(1R,4R)-6-(2-oxa-5-aza-bicyclo[2.2.1]hept-5-yl)-pyridine-3-sulfonyl]-6-oxo-piperazin-1-yl}-thiophene-2-carboxylic acid] |  | 1 nM | ≤ 100 nM |
| CCn1cc(S(=O)(=O)N2CC(=O)N(c3cc(C#CC(C)(C)C)sc3C(=O)O)[C@H](C3CCCCC3)C2)cn1 [Compound 275, 3-[(R)-2-Cyclohexyl-4-(1-ethyl-1H-pyrazole-4-sulfonyl)-6-oxo-piperazin-1-yl]-5-(3,3-dimethyl-but-1-ynyl)-thiophene-2-carboxylic acid] |  | 2 nM | ≤ 100 nM |
| COc1cc(F)c(S(=O)(=O)N2CC(=O)N(c3cc(C#CC(C)(C)C)sc3C(=O)O)[C@H](C3CCCCC3)C2)cc1OC [Compound 276, 3-[(R)-2-Cyclohexyl-4-(2-fluoro-4,5-dimethoxy-benzenesulfonyl)-6-oxo-piperazin-1-yl]-5-(3,3-dimethyl-but-1-ynyl)-thiophene-2-carboxylic acid] |  | 2 nM | ≤ 100 nM |
| COc1ccc(S(=O)(=O)N2CC(=O)N(c3cc(C#CC(C)(C)C)sc3C(=O)O)[C@H](C3CCCCC3)C2)cc1OC [Compound 277, 3-[(R)-2-Cyclohexyl-4-(3,4-dimethoxy-benzenesulfonyl)-6-oxo-piperazin-1-yl]-5-(3,3-dimethyl-but-1-ynyl)-thiophene-2-carboxylic acid] |  | 2 nM | ≤ 100 nM |
| C[C@@H]1CN(c2ccc(S(=O)(=O)N3CC(=O)N(c4cc(-c5ccc(F)cc5)sc4C(=O)O)[C@H](C4CCCCC4)C3)cn2)C[C@H](C)O1 [Compound 278, 3-{(R)-2-Cyclohexyl-4-[6-((2R,6S)-2,6-dimethyl-morpholin-4-yl)-pyridine-3-sulfonyl]-6-oxo-piperazin-1-yl}-5-(4-fluoro-phenyl)-thiophene-2-carboxylic acid] |  | 1 nM | ≤ 100 nM |
| COC[C@@H]1CCCN1c1ccc(S(=O)(=O)N2CC(=O)N(c3cc(-c4ccc(F)cc4)sc3C(=O)O)[C@H](C3CCCCC3)C2)cn1 [Compound 279, 3-{(R)-2-Cyclohexyl-4-[6-((S)-2-methoxymethyl-pyrrolidin-1-yl)-pyridine-3-sulfonyl]-6-oxo-piperazin-1-yl}-5-(4-fluoro-phenyl)-thiophene-2-carboxylic acid] |  | 1.1 nM | ≤ 100 nM |
| O=C(O)c1sc(-c2ccc(F)cc2)cc1N1C(=O)CN(S(=O)(=O)c2ccc(N3CC[C@@H](F)C3)nc2)C[C@H]1C1CCCCC1 [Compound 280, 3-{(R)-2-Cyclohexyl-4-[6-((R)-3-fluoro-pyrrolidin-1-yl)-pyridine-3-sulfonyl]-6-oxo-piperazin-1-yl}-5-(4-fluoro-phenyl)-thiophene-2-carboxylic acid] |  | 1 nM | ≤ 100 nM |
| CC(C)(C)C#Cc1cc(N2C(=O)CN(S(=O)(=O)c3ccc(F)cc3F)C[C@H]2C2CCCCC2)c(C(=O)O)s1 [Compound 281, 3-[(R)-2-Cyclohexyl-4-(2,4-difluoro-benzenesulfonyl)-6-oxo-piperazin-1-yl]-5-(3,3-dimethyl-but-1-ynyl)-thiophene-2-carboxylic acid] |  | 3 nM | ≤ 100 nM |
| CC(C)(C)C#Cc1cc(N2C(=O)CN(S(=O)(=O)c3c(Cl)cccc3Cl)C[C@H]2C2CCCCC2)c(C(=O)O)s1 [Compound 282, 3-[(R)-2-Cyclohexyl-4-(2,6-dichloro-benzenesulfonyl)-6-oxo-piperazin-1-yl]-5-(3,3-dimethyl-but-1-ynyl)-thiophene-2-carboxylic acid] | 100 to 5000 nM | 31 nM |  |
| COc1cc(S(=O)(=O)N2CC(=O)N(c3cc(C#CC(C)(C)C)sc3C(=O)O)[C@H](C3CCCCC3)C2)ccc1F [Compound 283, 3-[(R)-2-Cyclohexyl-4-(4-fluoro-3-methoxy-benzenesulfonyl)-6-oxo-piperazin-1-yl]-5-(3,3-dimethyl-but-1-ynyl)-thiophene-2-carboxylic acid] |  | 4 nM | ≤ 100 nM |
| Cn1ccc(S(=O)(=O)N2CC(=O)N(c3cc(-c4ccc(Cl)cc4)sc3C(=O)O)[C@H](C3CCCCC3)C2)n1 [Compound 284, 5-(4-Chloro-phenyl)-3-[(R)-2-cyclohexyl-4-(1-methyl-1H-pyrazole-3-sulfonyl)-6-oxo-piperazin-1-yl]-thiophene-2-carboxylic acid] |  | 3 nM | ≤ 100 nM |
| O=C(O)c1sc(-c2ccc(F)cc2)cc1N1C(=O)CN(S(=O)(=O)c2ccc(N3CCCCCC3)nc2)C[C@H]1C1CCCCC1 [Compound 285, 3-[(R)-4-(6-Azepan-1-yl-pyridine-3-sulfonyl)-2-cyclohexyl-6-oxo-piperazin-1-yl]-5-(4-fluoro-phenyl)-thiophene-2-carboxylic acid] |  | 2 nM | ≤ 100 nM |

From patent publication US9498483B2, “2,3,5-trisubstituted thiophene compounds and uses thereof” (priority 2010, dated 2016)
